Results published in patent US7166296B2, “Pharmaceutical formulations and ligands for use therein; mimetics for UEA-1” (Sarlan, Ltd., priority 2001, dated 2007).
≈ marks a conversion by molar mass, not a printed value.

Experiments:
[1] = system: UEA-1 binding sites on Caco-2 cell membrane preparations; assay: Single tier competition assay: inhibition of biotinylated UEA-1 binding, compound and biotinylated UEA-1 incubated together; parameters: species or system human; conditions: for Av % Inhibition / Avg % Inhibtion: Single Tier Assay; for Av % Inhibition: library MSI 22; for Avg % Inhibtion: library MSI 26
Description: (§1) The epithelial cell binding ability of compounds and mixtures obtained from synthetic combinatorial libraries was determined by competition assays. These assays were set up to measure the inhibition of binding of biotinylated UEA-1 to membrane preparations of the epithelial cell line Caco-2 (colon carcinoma cells-2), by compounds and mixtures of the combinatorial libraries. This cell line is a conventional model for epithelial cells.
(§2) Two competition inhibition assays were used in this case, namely single tier and two tier assays. These assays differed from each other in that in the single tier assay, the mixtures/compounds and the biotinylated UEA-1 were incubated together with the Caco-2 cell membrane preparations, while in case of the two-tier assay, the mixture/compounds were allowed to incubate alone with the cell membranes in the absence of biotinylated UEA-1, which was added in the next step. Addition of the extra step in the two-tier assay was to ensure that the compounds inhibiting the binding of biotinylated UEA-1 to the Caco-2 cell membranes were doing so by themselves binding to surface receptors on the Caco-2 cells and not to the biotinylated UEA-1. Each assay will be described in detail.
(§3) • 1. Confluent Caco-2 cell monolayers (grown in 75 cm^2 flasks for up to 1 week at 37° C. and 5% CO2) were washed twice in Dulbecco's PBS (DPBS). • 2. Cell monolayers were treated with 10 mM EDTA-DPBS for 5–10 min at 37° C. and cells were harvested by centrifugation at 1000 rpm for 5 min. • 3. Cells were washed 3 times in DPBS. • 4. […] The cells were homogenised for 30 sec. • 6. The homogenates were centrifuged in hard walled tubes at 40,000 rpm for 45 min at 4° C. • 7. […] The supernatant was removed and stored on ice. The procedure was repeated adding the second supernatant to the first. • 8. The protein concentration was determined using e.g. a Bio-Rad protein assay. • 9. All fractions were stored at −80° C. prior to use. Single Tier Assays: • 1. 96-well microtiter plates were coated with membrane preparations of Caco-2 cells either by allowing them to incubate on the plates for 2½ hours at room temperature or by incubating them overnight at 4° C. 100 μl of 10 μg/ml (in 0.05 M carbonate buffer, pH 9.6) of membrane preparation was added to each well. • 2. The plates were flicked out, patted dry and blocked with bovine serum albumin (BSA)/DPBS (200 μl/well) for 1 to 4 hours at room temperature after which they were washed three times in water. • 3. […] Control wells were also set up in which the Caco-2 cell membrane preparations were incubated with unconjugated UEA-1. […] Following overnight incubation the plates were washed thoroughly (3–6 times). The plates were flicked out, patted dry and biotinylated UEA-1 was detected with commercial Streptavidin conjugated to horseradish peroxidase (HRP) (CalBiochem). […] The plates were left to incubate for an hour at room temperature. • 6. The plates were then washed 3–6 times and the biotin-streptavidin binding was detected by adding an HRP substrate OPD (orthophenyl diamine) to each well. 100 μl/well of this substrate at a final concentration of 1.6 mg/ml was added to each well. Before adding to the wells, this substrate was activated by addition of 50 μl of 3% H2O2 per plate and the reaction was allowed to develop in the dark. • 7. The reaction was stopped by adding 50 μl of 4 N H2SO4 to each well after approximately 5–10 minutes or when sufficient colour had developed. The OD490 (absorbance at 490 nm) of each well was measured using a conventional 96 well plate reading spectrophotometer. Two Tier Assays: • 1. 96 well plates were coated with Caco-2 cell membrane preparations in the same manner as described in the single tier assay. • 2. […] 100 μl at these final concentrations were added to each well. • 4. The plates were then left to incubate overnight, a step that would allow the mixtures and compounds to interact with the Caco-2 cell membranes without the presence of the competitor (biotinylated UEA-1) itself. • 5. […]

[2] = system: UEA-1 binding sites on Caco-2 cell membrane preparations; assay: Two tier competition assay: compound incubated alone with membranes, biotinylated UEA-1 added in next step; parameters: species or system human; conditions: for Av % Inhibition / Avg % Inhibition: Two Tier Assay; for Av % Inhibition: library MSI 22; for Avg % Inhibition: library MSI 26
Description: as §1, §2, §3

[3] = library MSI 27, read-out: Single Tier Assay IC50
[4] = library MSI 27, read-out: Two Tier Assay IC50
[5] = Table 8, galloyl constructs, read-out: IC 50 (uM) 1st tier (converted)
[6] = Table 8, galloyl constructs, read-out: IC 50 (uM) 2nd tier

Question: Which “Single Tier Assay IC50” value ([1]; library MSI 27) does the source give for `COc1ccc(C(=O)NCCCCC(NC(=O)C(CCCCNC(=O)c2ccc(OC)c(OC)c2)NC(=O)C(CCCCNC(=O)c2ccc(OC)c(OC)c2)NC(C)=O)C(N)=O)cc1OC` (centres unmarked) [Cpd 50] here?
Answer: Its value is 77.09 µg/mL.

Question: What about the IC50 [1, 3] of the same compound?
Answer: The IC50 was 82.4 µM.

Question: What about the “Two Tier Assay IC50” value ([2]; library MSI 27) of the same compound?
Answer: The value was 42.79 µg/mL.

Question: What about the IC50 [2, 4] of the same compound?
Answer: Its IC50 is 45.7 µM.

Question: Which IC50 [1, 3] does the source give for `NC(=O)C(CCCCNC(=O)c1ccc(O)cc1)NC(=O)c1ccc(O)cc1` (centres unmarked) [Cpd 7] here?
Answer: Its IC50 is 649 µM.

Question: And the IC50 [2, 4]?
Answer: The IC50 was 649 µM.

Question: With `CC(=O)NC(CCCCNC(=O)c1ccc(O)cc1)C(=O)NC(CCCCNC(=O)c1ccc(O)cc1)C(=O)NC(CCCCNC(=O)c1ccc(O)cc1)C(N)=O` (centres unmarked) [Cpd 55] as the compound, how does the IC50 [1, 3] read?
Answer: Its IC50 is 311 µM.

Question: What about the IC50 [2, 4] of the same compound?
Answer: Its IC50 is 311 µM.

Question: Which “Av % Inhibition” value ([1]; 62.5 μg/ml) does the source give for `CCOc1ccc(C[C@H](CNC)N(C)C[C@H](CC2CCCCC2)NC(=O)c2cc(OC)c(OC)c(OC)c2)cc1` here?
Answer: Its value is −9%.

Question: What about the “Av % Inhibition” value ([1]; 250 μg/ml) of the same compound?
Answer: Its value is −55.7%.

Question: And the “Av % Inhibition” value ([2]; 62.5 μg/ml)?
Answer: Its value is 49.8%.

Question: What about the “Av % Inhibition” value ([2]; 250 μg/ml) of the same compound?
Answer: Its value is 43.8%.

Question: Which results are given for `O=C(O[C@@H]1Cc2c(O)cc(O)cc2O[C@H]1c1cc(O)c(O)c(O)c1)c1cc(O)c(O)c(O)c1` [Gallocatechin gallate, reference compound]?
Answer: Avg % Inhibtion ([1]; 62.5 μg/ml): 54.6%; Avg % Inhibtion ([1]; 250 μg/ml): 33.6%; Avg % Inhibition ([2]; 62.5 μg/ml): 7%; Avg % Inhibition ([2]; 250 μg/ml): 14.1%

Question: `CCC[C@H](CNC)N(C)C[C@@H](CC1CCCCC1)NC(=O)c1cc(O)c(O)c(O)c1` [D-Nve, D-chAla, Gallic Acid] was tested. Which “Av % Inhibition” value ([1]; 62.5 μg/ml) did it give?
Answer: Its value is 22.0%.

Question: What about the “Av % Inhibition” value ([1]; 250 μg/ml) of the same compound?
Answer: The value was 47.8%.

Question: And the “Av % Inhibition” value ([2]; 62.5 μg/ml)?
Answer: Its value is 20.6%.

Question: And the “Av % Inhibition” value ([2]; 250 μg/ml)?
Answer: The value was 48.5%.

Question: `NC(=O)C(CCCNC(=O)c1cc(O)c(O)c(O)c1)NC(=O)C(CCCNC(=O)c1cc(O)c(O)c(O)c1)NC(=O)c1cc(O)c(O)c(O)c1` (centres unmarked) [MSI 34 #11] was tested. Which “IC 50 (ug/ml) 1st tier” value ([1]; Table 8, galloyl constructs) did it give?
Answer: Its value is 1 µg/mL (≈ 1.43 µM).

Question: And the IC50 [1, 5]?
Answer: Its IC50 is 2 µM.

Question: What about the “IC 50 (ug/ml) 2nd tier” value ([2]; Table 8, galloyl constructs) of the same compound?
Answer: Its value is 0.8 µg/mL (≈ 1.14 µM).

Question: What about the IC50 [2, 6] of the same compound?
Answer: The IC50 was 1 µM.

Question: `CCOc1cc(C(=O)NCCCCC(NC(=O)C(CCCCNC(=O)c2cc(OCC)c(OCC)c(OCC)c2)NC(C)=O)C(N)=O)cc(OCC)c1OCC` (centres unmarked) [Cpd 35] was tested. Which IC50 [1, 3] did it give?
Answer: Its IC50 is 317 µM.

Question: And the IC50 [2, 4]?
Answer: Its IC50 is 317 µM.

Question: How did the IC50 [1, 3] turn out when `CC(=O)NC(CCCCNC(=O)c1cc(O)cc(O)c1)C(=O)NC(CCCCNC(=O)c1cc(O)cc(O)c1)C(N)=O` (centres unmarked) [Cpd 40] was run?
Answer: Its IC50 is 425 µM.

Question: And the IC50 [2, 4]?
Answer: Its IC50 is 425 µM.

Question: Which results are given for `CNC[C@@H](Cc1ccc(OC(=O)OCc2ccccc2Br)cc1)N(C)C[C@H](CC1CCCCC1)NC(=O)c1cc(OC)c(OC)c(OC)c1`?
Answer: Av % Inhibition ([1]; 62.5 μg/ml): −0%; Av % Inhibition ([1]; 250 μg/ml): −11.7%; Av % Inhibition ([2]; 62.5 μg/ml): 39.7%; Av % Inhibition ([2]; 250 μg/ml): 58.9%

Question: Which results are given for `NC(=O)C(CCNC(=O)c1cc(O)c(O)c(O)c1)NC(=O)C(CCNC(=O)c1cc(O)c(O)c(O)c1)NC(=O)c1cc(O)c(O)c(O)c1` (centres unmarked) [MSI 34 #10]?
Answer: IC 50 (ug/ml) 1st tier ([1]; Table 8, galloyl constructs): 0.6 µg/mL (≈ 0.891 µM); IC50 [1, 5]: 0.9 µM; IC 50 (ug/ml) 2nd tier ([2]; Table 8, galloyl constructs): 0.7 µg/mL (≈ 1.04 µM); IC50 [2, 6]: 1 µM

Question: Which “IC 50 (ug/ml) 1st tier” value ([1]; Table 8, galloyl constructs) does the source give for `CC(=O)NC(CCCCNC(=O)c1cc(O)c(O)c(O)c1)C(=O)NC(CCCCNC(=O)c1cc(O)c(O)c(O)c1)C(N)=O` (centres unmarked) [Cpd 38] here?
Answer: Its value is 54 µg/mL (≈ 87.1 µM).

Question: What about the IC50 [1, 5] of the same compound?
Answer: The IC50 was 86 µM.

Question: And the “Single Tier Assay IC50” value ([1]; library MSI 27)?
Answer: Its value is 87.78 µg/mL.

Question: And the IC50 [1, 3]?
Answer: The IC50 was 142 µM.

Question: And the “IC 50 (ug/ml) 2nd tier” value ([2]; Table 8, galloyl constructs)?
Answer: The value was 48 µg/mL (≈ 77.5 µM).

Question: What about the IC50 [2, 6] of the same compound?
Answer: Its IC50 is 77 µM.

Question: What about the “Two Tier Assay IC50” value ([2]; library MSI 27) of the same compound?
Answer: The value was 54.27 µg/mL.

Question: And the IC50 [2, 4]?
Answer: Its IC50 is 87.6 µM.
